Assay results as given in patent US5714467A, “Antibacterial and antimalarial hybrid peptides” (The Rockefeller University, priority 1993, dated 1998).
Where no end group is shown, it is not given here.

Legend:
Bacillus subtilis Bs11 = assay: inhibition zone assay, lethal concentration; assay type: cell-based
Procedure: (§1) The products of the invention were tested for activity against a variety of test organisms selected to represent a number of different types of pathogens some of them known to be particularly virulent by the inhibition zone assay of Hoffmann et al (1981) Insect Biochem. 11 537-548 which is incorporated herein by reference. Thin agar or agarose plates (8.5 cm diameter) were prepared with 6 ml of rich medium containing 100 ug/ml of streptomycin and 2×10^5 viable cells of a test organism resistant to streptomycin. Wells of […] diameter were punched in the plates and 3 ul of serially diluted samples were placed in the wells. The diameters of the zones of inhibition around the wells were measured after overnight incubation at 30° or 37° C. For each peptide the squares of the zone diameters were plotted against the logarithm of the concentration, and from the slopes and intercepts the lethal concentrations were calculated as described by Hultmark (1983) EMBO J. 2, 571-76 or Hultmark et al (1982) Eur. J. Biochem. 127 207-217 each of which being incorporated herein by reference.
(§2) It was observed during testing that basic peptides often bind to agar plates, but not so much to agarose. Therefore those lethal concentrations determined on agar may, in fact, be substantially higher than the actual lethal concentrations.
(§3) Novel peptides CA(1-8)M(1-18), CA(1-9)M(1-17), CB(1-13)M(1-13), CA(1-17)M(1-9), CA(1-18)M(1-8), M(1-13)CA(1-22) and M(1-13)CA(1-13) were prepared as described above (see Examples 1-6). These novel peptides and CA, CB, and M were tested for activity against a variety of organisms selected to represent a number of different types of pathogens, some of them known to be particularly virulent by the inhibition zone assay of Hoffmann et al (1981), Insect Biochem. 11 537-48. As in Examples 1-6, thin agarose plates were prepared with the respective organisms. The diameters of the zones of inhibition were measured after overnight incubation at 30° C. The lethal concentrations were determined as described above (see Examples 1-6; Hultmark et al articles cited thereat).

Escherichia coli D21 = assay: inhibition zone assay, lethal concentration; assay type: cell-based
Procedure: as §1, §2, §3

[1] = test system: Pseudomonas aeruginosa OT97; assay: inhibition zone assay, lethal concentration; assay type: cell-based
Procedure: as §1, §2, §3

[2] = test system: Staphylococcus aureus Cowan I; assay: inhibition zone assay, lethal concentration; assay type: cell-based
Procedure: as §1, §2, §3

Streptococcus pyogenes = assay: inhibition zone assay, lethal concentration; assay type: cell-based
Procedure: as §1, §2, §3

Bacillus megaterium BM11 = assay: inhibition zone assay, lethal concentration; assay type: cell-based; settings: Table 2, footnote c: incubation overnight at 37° C.
Procedure: as §1, §2

Candida albicans = assay: inhibition zone assay, lethal concentration; assay type: cell-based; settings: Table 2, footnote c: incubation overnight at 37° C.
Procedure: as §1, §2

Escherichia coli D22 = assay: inhibition zone assay, lethal concentration; assay type: cell-based; settings: Table 2, footnote c: incubation overnight at 37° C.
Procedure: as §1, §2

Micrococcus luteus Ml11 = assay: inhibition zone assay, lethal concentration; assay type: cell-based; settings: Table 2, footnote c: incubation overnight at 37° C.
Procedure: as §1, §2

Saccharomyces cerevisiae = assay: inhibition zone assay, lethal concentration; assay type: cell-based; settings: Table 2, footnote c: incubation overnight at 37° C.
Procedure: as §1, §2

[3] = test system: Staphylococcus haemolyticus; assay: inhibition zone assay, lethal concentration; assay type: cell-based; settings: Table 2, footnote c: incubation overnight at 37° C.
Procedure: as §1, §2

[4] = test system: Xenorhabdus nematophilis Xn21; assay: inhibition zone assay, lethal concentration; assay type: cell-based; settings: Table 2, footnote c: incubation overnight at 37° C.
Procedure: as §1, §2

Sheep Red Cells = assay: lysis of sheep red blood cells (lysis assay or SRC plate assay); assay type: cell-based
Procedure: These values were obtained by either the lysis assay normally used for melittin or by an adaptation of the antibacterial inhibition zone assay of the above-cited Hultmark et al articles to plates with sheep red cells (SRC). With respect to the latter, sterile agarose plates contained 6 ml of medium With 1% agarose, 0.9% NaCl and 10% SRC suspended in Alsevers solution. A dilution series of peptide was applied in 3 mm wells each loaded with 3 μl of the respective samples. The plates were incubated at 30° C. for 24 h, the zones were recorded and LC values calculated as described in the Hultmark et al articles. Clear zones were recorded after a few hours of incubation and the use of such data gave an LC value of the same order as readings after 24 h. This plate assay is faster and more convenient than the lysis assay normally used for melittin.

[5] = test system: Plasmodium falciparium strain F32 (Tanzania), blood stream forms; assay: inhibition of reinvasion of human red cells by malaria parasite; assay type: cell-based, Plasmodium falciparum; settings: FIG. 1, blood stream form of Plasmodium falciparium
Procedure: Hybrid peptides CA(1-13)M(1-13) and CA(1-8)M(1-18) were prepared as described above (see Examples 1-6) and were assayed for activity against the blood stream form of Plasmodium falciparium. For comparison the test included cecropins A and B and the frog skin peptides magainin 2 and PGLa.
The blood stream forms of the malaria parasite Plasmodium falciparium, primarily late trophozoites and early schizonts, were assayed by recording the inhibition of the reinvasion of human red cells by the method of Wahlin, B., et al, (1984) Proc. Nat'l Acad. Sci. USA 81, 7912-16, incorporated herein by reference. Quadruplicate microcultures of strain F32 (Tanzania) were incubated for 20 hrs at 37° C. in a complete tissue culture medium, with or without different concentrations of the peptides to be assayed. After acridine orange staining, the percentage of newly infected red cells was scored in a fluorescence microscope. For each culture 40,000 red cells were analysed for parasitic infection. Duplicate assays were run for CA(1-13)M(1-13).

[6] = Table 2, footnote a: incubation overnight at 30° C. as well as at 37° C.
[7] = Table 3, agarose plates, overnight incubation at 30° C.
[8] = Table 2, footnote b: incubation overnight at 30° C.
[9] = Table 2, footnote c: incubation overnight at 37° C.

KWKLFKKIEKVGQNIRDGIIKAGPAVAVVGQATQIAK-NH2 [CA(1-37), Cecropin A]
Lethal concentration, Bacillus subtilis Bs11 (Medium E) (Bacillus subtilis Bs11; Table 2, Medium E, footnote c: incubation overnight at 37° C.): 200 µM | Lethal concentration, Bacillus subtilis Bs11 (Bacillus subtilis Bs11; [6]): 4 µM | Lethal concentration, Bs11 = B. subtilis (Bacillus subtilis Bs11; [7]): 4 µM | Lethal concentration, Bs11 + ME = B. subtilis, plates prepared with medium E (Bacillus subtilis Bs11; Table 3, medium E, agarose plates, overnight incubation at 30° C.): 200 µM | Lethal concentration, Escherichia coli D21 (Escherichia coli D21; [6]): 0.2 µM | Lethal concentration, D21 = E. coli (Escherichia coli D21; [7]): 0.2 µM | Lethal concentration, Pseudomonas aeruginosa OT97 [1, 8]: 2 µM | Lethal concentration, Pseudomonas aeruginosa OT97 [1, 9]: 1.6 µM | Lethal concentration, OT97 = P. aeruginosa [1, 7]: 2 µM | Lethal concentration, Staphylococcus aureus Cowan I [2, 6]: > 200 µM | Lethal concentration, Staph = S. aureus Cowan I [2, 7]: 200 µM | Lethal concentration, Streptococcus pyogenes (Streptococcus pyogenes; [8]): 4 µM | Lethal concentration, Streptococcus pyogenes (Streptococcus pyogenes; [9]): 6 µM | Lethal concentration, Strep = S. pyogenes (Streptococcus pyogenes; [7]): 4 µM | Lethal concentration, Bacillus megaterium BM11 (Bacillus megaterium BM11): 1 µM | Lethal concentration, Candida albicans (Candida albicans): > 200 µM | Lethal concentration, Escherichia coli D22 (Escherichia coli D22): 0.5 µM | Lethal concentration, Micrococcus luteus Ml11 (Micrococcus luteus Ml11): 1 µM | Lethal concentration, Saccharomyces cerevisiae (Saccharomyces cerevisiae): 60 µM | Lethal concentration, Staphylococcus haemolyticus [3]: 3 µM | Lethal concentration, Xenorhabdus nematophilis Xn21 [4]: 2 µM | Lethal concentration, Sheep Red Cells (Sheep Red Cells; [6]): > 200 µM | Lethal concentration, SRC = Sheep Red Cells (Sheep Red Cells; Table 3): 200 µM | antimalarial potency in words [5]: negligible activity
